Experimental data from US8163795B2, “Chroman derivatives, medicaments and use in therapy” (Marshall Edwards, Inc., priority 2004, dated 2012).

What was measured:
Type in all cases: cell-based
DU145 (Prostate) = experiment: Proliferation assay (MTT); details: Homo sapiens, DU-145, Table 2.1
How it was run: (§1)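 MTT reduction read-out after 3-4 hrs at 37° C served as the proliferation measure following 5 days of culture with test compounds. IC50 derived from semi-log % control versus log dose curves.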

NCI-H460 (Lung) = experiment: Proliferation assay (MTT); details: Homo sapiens
How it was run: as §1

[1] = tested on: PC3 prostate cancer cell line; experiment: Proliferation assay (MTT)
How it was run: as §1

RM melanoma cell line = experiment: Proliferation assay (MTT); details: Table 15
How it was run: as §1

[2] = tested on: SKMe128 melanoma cell line; experiment: Proliferation assay (MTT); details: Table 15
How it was run: as §1

[3] = tested on: Mel-AT melanoma cells (Trail +ve/Caspase 8 −ve); experiment: Apoptosis incidence in melanoma cells

COc1ccc(C2c3ccc(O)cc3OCC2c2ccc(O)cc2)cc1 (centres unmarked) [Compound 1, 3-(4-hydroxyphenyl)-4-(4-methoxyphenyl)chroman-7-ol]
IC50 (DU145 (Prostate)): 3.78 µM
IC50 (NCI-H460 (Lung); NCI-H460, Table 2.1, Lung NCI-H460): 2.23 ± 0.15 µM
IC50 (NCI-H460 (Lung); NCI-H460, Table 2.2, NSC Lung NCI-H460): 2.8 ± 2 µM
IC50 ([1]; Table 2.1): 2.9 ± 0.92 µM
IC50 ([1]; Table 2.2): 2.5 ± 1 µM
IC50 (RM melanoma cell line): 1.4 ± 1.6 µM
IC50 [2]: 0.68 ± 0.16 µM
Percent Apoptosis ([3]; 24 hr exposure, 1 uM): 0%
Percent Apoptosis ([3]; 24 hr exposure, 2 uM): 6%
Percent Apoptosis ([3]; 24 hr exposure, 4 uM): 9%
Percent Apoptosis ([3]; 24 hr exposure, 8 uM): 23%
Percent Apoptosis ([3]; 24 hr exposure, 20 uM): 24%
Percent Apoptosis ([3]; 48 hr exposure, 1 uM): 1%
Percent Apoptosis ([3]; 48 hr exposure, 2 uM): 7%
Percent Apoptosis ([3]; 48 hr exposure, 4 uM): 25%
Percent Apoptosis ([3]; 48 hr exposure, 8 uM): 59%
Percent Apoptosis ([3]; 48 hr exposure, 20 uM): 35%
